{
  "source": "patent US4127446A",
  "about": "“Process for producing antibiotics mimosamycin and chlorocarcins A, B and C” (priority 1975, dated 1978)",
  "test_system": "Mycobacterium tuberculosis SMR",
  "assay": "Antimicrobial activity of mimosamycin against tubercle bacilli (Table 4)",
  "assay_type": "cell-based",
  "conditions": "672 h",
  "data": [
    {"smiles": "COC1=C(C)C(=O)c2cc(=O)n(C)cc2C1=O", "note": "[Mimosamycin]", "values": [
      {"measurement": "MIC", "result": 1.56, "unit": "µg/mL"}
    ]}
  ]
}
